Tests used:
hTAS1R2/hTAS1R3(r1–575) = molecular target: T1, hTAS1R2/hTAS1R3(r1–575) (UniProt Q8TE23+Q923K1, A645S/A698V/A702T/A793V/A807V/C582S/C678S/E725V/E827G/F612A/F622V/F805L/I617V/I740A/I779T/I803L/K818R/L735F/L823M/L825Q/M644L/M706V/M729T/N675D/Q717H/Q757R/Q795R/Q831P/R632Q/R634S/R762C/S576L/S610P/S635P/S637R/S679G/T588V/T694M/T813A/V584A/V718M/V723A/V738A/V744T/V821L/W599R/W676R/W824R/Y598H/Y680C/Y794L); assay: Calcium assay, chimeric TAS1R3 co-expressed with hTAS1R2; format: cell-based, human, rat
T1 construct: hTAS1R3(r1–575) consists of the N-terminal extracellular domain of rTAS1R3 and the TMD of hTAS1R3; expressed in transfected cells
Source text: Chimeric Gα proteins, such as Gα16Gust44, Gα16Gi3 or Gα15i2, are widely used in the functional expression of TAS1R receptors ([Backes et al., 2015]; [Suess et al., 2015]; [Toda et al., 2021], [Toda et al., 2013], [Toda et al., 2018]; [Zhang et al., 2008]). Chimeric Gα15i2 (([Toda et al., 2013]), Supplementary data) was generated by replacing the last five residues of the C-terminal tail of rat Gα15i2 (EINLL) (UniProt number G3V6N8; https://www.uniprot.org/uniprot/) with the counterpart sequence from human GNAI2 (DCGLF) (UniProt number P04899-1) and cloning into the pcDNA3.1/Hygro vector (Invitrogen, Thermo Fisher Scientific, Illkirch, France) between the HindIII and NotI restriction sites, resulting in the plasmid pcDNA3.1-Gα15i2. Chimeric Gα16Gust44 construct have already been reported ([Raliou et al., 2011]). Briefly, Gα16Gust44 was generated by replacing the C-terminal of Gα16 with the C-terminal 44 residues of gustducin. As previously described, hTAS1R1 was amplified from human fungiform papillae cDNA and cloned and inserted into pcDNA3 (Invitrogen), generating pcDNA3-TAS1R1-WT (wild-type) ([Raliou et al., 2011]). […]

hTAS1R2/rTAS1R3(Mut2) = molecular target: T2, hTAS1R2/rTAS1R3(Mut2) (UniProt Q8TE23+Q923K1, L72W/P67S/S282A/Y281H); assay: Calcium assay, mutated rTAS1R3 co-expressed with hTAS1R2; format: cell-based, human, rat
T2 construct: The cDNA coding region of rTAS1R3 was synthesized with optimized-codon usage for human expression; expressed in transfected cells
T2 sequence (Q8TE23 20-839): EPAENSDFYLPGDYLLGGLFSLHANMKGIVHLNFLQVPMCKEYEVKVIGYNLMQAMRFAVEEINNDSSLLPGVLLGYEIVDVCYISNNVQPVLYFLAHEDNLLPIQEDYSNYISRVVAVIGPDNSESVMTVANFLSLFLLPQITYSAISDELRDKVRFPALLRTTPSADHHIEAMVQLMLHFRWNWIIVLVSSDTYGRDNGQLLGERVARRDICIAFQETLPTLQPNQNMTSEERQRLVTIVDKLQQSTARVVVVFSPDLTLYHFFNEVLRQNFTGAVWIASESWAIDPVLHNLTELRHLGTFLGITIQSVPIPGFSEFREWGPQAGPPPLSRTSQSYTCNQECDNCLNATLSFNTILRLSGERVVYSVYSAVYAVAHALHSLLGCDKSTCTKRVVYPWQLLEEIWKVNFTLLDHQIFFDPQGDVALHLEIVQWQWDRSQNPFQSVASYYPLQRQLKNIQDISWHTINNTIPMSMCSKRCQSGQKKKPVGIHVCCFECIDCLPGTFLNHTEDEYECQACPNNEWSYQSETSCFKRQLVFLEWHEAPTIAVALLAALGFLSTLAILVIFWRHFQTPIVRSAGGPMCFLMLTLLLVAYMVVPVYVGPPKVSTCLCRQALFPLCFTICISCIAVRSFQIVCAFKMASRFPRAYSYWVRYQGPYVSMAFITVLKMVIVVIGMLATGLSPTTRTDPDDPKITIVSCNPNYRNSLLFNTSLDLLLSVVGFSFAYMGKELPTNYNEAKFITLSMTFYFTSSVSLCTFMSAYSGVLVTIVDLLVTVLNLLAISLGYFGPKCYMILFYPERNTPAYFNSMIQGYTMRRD
T2 sequence (Q923K1 21-858 P67S/L72W/Y281H/S282A): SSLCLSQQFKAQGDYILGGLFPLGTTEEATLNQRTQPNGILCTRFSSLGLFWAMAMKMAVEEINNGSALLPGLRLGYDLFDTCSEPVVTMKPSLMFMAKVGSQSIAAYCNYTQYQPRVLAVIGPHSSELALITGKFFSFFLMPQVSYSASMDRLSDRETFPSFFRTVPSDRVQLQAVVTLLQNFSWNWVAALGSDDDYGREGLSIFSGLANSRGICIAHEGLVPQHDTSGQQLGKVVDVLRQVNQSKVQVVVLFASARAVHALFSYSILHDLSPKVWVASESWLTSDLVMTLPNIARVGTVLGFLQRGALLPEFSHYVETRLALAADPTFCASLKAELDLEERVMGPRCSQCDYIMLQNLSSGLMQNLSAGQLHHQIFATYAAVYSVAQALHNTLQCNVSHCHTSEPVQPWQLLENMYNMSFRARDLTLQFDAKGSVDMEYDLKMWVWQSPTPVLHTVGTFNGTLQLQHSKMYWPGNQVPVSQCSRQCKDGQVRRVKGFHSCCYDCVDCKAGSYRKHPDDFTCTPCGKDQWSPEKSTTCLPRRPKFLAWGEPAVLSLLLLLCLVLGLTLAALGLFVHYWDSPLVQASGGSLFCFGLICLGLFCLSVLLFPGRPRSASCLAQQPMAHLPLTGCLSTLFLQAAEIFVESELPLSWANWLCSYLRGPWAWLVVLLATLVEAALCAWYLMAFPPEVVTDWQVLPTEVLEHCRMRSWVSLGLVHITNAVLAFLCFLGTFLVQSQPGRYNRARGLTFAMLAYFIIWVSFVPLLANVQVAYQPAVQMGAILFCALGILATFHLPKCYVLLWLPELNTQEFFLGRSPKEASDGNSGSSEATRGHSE

T1 sequence (Q8TE23 20-839, stated change not applied): as the sequence (Q8TE23 20-839) above
T1 sequence (Q923K1 other isoform, or with tags, fused parts or gaps with the stated changes): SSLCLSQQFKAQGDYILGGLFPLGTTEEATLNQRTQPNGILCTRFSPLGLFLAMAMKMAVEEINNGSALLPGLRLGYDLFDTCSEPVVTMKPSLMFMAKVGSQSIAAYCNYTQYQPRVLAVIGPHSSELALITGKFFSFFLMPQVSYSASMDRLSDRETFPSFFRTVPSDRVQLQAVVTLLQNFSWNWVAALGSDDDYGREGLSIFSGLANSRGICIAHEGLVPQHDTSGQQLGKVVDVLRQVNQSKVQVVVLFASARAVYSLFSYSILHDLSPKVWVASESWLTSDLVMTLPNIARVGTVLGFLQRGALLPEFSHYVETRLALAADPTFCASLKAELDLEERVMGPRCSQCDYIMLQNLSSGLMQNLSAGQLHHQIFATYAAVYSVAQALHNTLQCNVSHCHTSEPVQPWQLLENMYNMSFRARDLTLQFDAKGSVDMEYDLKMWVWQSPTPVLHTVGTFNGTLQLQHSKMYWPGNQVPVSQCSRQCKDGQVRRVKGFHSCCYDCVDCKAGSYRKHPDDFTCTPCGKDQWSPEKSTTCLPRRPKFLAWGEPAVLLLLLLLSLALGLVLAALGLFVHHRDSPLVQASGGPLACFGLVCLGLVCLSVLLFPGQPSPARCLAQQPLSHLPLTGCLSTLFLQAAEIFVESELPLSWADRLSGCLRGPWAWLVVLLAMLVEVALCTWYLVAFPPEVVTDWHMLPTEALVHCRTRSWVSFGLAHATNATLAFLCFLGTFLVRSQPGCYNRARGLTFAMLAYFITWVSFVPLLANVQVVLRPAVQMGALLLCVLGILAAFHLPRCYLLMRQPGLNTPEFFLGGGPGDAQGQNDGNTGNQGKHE

| EC50 (hTAS1R2/hTAS1R3(r1–575); sucralose alone, Fig. 3B) [µM] | EC50 (hTAS1R2/rTAS1R3(Mut2); sucralose alone, Fig. 4A) [µM] | SMILES | fold decrease in the EC50 value of sucralose (hTAS1R2/hTAS1R3(r1–575); in the presence of 10 mM GSH) [fold] | effect of 10 mM GSH on the response to sucralose (hTAS1R2/rTAS1R3(Mut2)) |
| --- | --- | --- | --- | --- |
| – | – | N[C@@H](CCC(=O)N[C@@H](CS)C(=O)NCC(=O)O)C(=O)O [GSH, γ-L-glutamyl-L-cysteinyl-glycine] | 5.2 | not increased |
| 485 ± 138 | 493 ± 114 | OC[C@H]1O[C@H](O[C@]2(CCl)O[C@H](CCl)[C@@H](O)[C@@H]2O)[C@H](O)[C@@H](O)[C@H]1Cl [sucralose, reference compound] | – | – |
